Measurements taken from PMC7717691, “Design, synthesis, and anticonvulsant effects evaluation of nonimidazole histamine H3 receptor antagonists/inverse agonists containing triazole moiety” (Journal of Enzyme Inhibition and Medicinal Chemistry, 2020).
Where a name gives a salt, the structure may show the parent alone. Read-outs that look alike come from different tables or passages of the source.

Experiments:
H3R = molecular target: T1, H3R (Homo sapiens, UniProt Q9Y5N1); test: CRE-driven luciferase reporter gene assay, H3R antagonistic activity; format: cell-based; conditions: for % Antagonism 100 nM: 100 nM compound; for % Antagonism 100 nM / % Antagonism 1 μM: HEK-293 cells expressing human H3R, mean ± SD of three experiments; for % Antagonism 1 μM: 1 μM compound; for IC50: CRE luciferase assay, HEK-293 cells, Table 1
T1 construct: expressed in transfected cells
Experimental: cAMP-response element (CRE) reporter gene assay has been extensively used to evaluate the efficacy of GPCR antagonists or agonists. […] Initially, compounds and positive controls were tested at two concentrations (100 nM and 1 µM) to obtain the preliminary investigation of their H3R antagonistic activities. In the assays, the antagonistic activities was positively correlated with the rise of the fluorescence value and indicated by the % antagonism. For the prominent compounds IC50 values were determined at additional assays.
Human thalamus poly-A RNA (Clontech, Palo Alto, CA, USA) was used to clone the hH3R gene by RT-PCR. DNA PCR primers were designed in the light of the reported human histamine receptor gene sequences (GenBank accession no.AF140538). HEK-293 cells were cultured and transfected for the luciferase assay. The detailed procedures were described in the previous publication.
Stable HEK-293 cells, which had been co-transfected with H3R and pCRE-Luc, were seeded in a 96-well plate overnight, and were grown to 90–95% confluence[43]^,[44]. Then the cells were treated with various concentrations of tested compounds in serum-free DMEM and incubated for 20 min. Cells were then stimulated with 100 nM Histamine in serum-free DMEM containing 2 µM Forskolin and incubated for 4 h at 37 °C. Firefly luciferase assay kits (Ken-real, Shanghai, China) were used to determine the luciferase activity.

intracellular cAMP = test: Effect of compounds administrated alone on the level of intracellular cAMP; format: cell-based; conditions: for effect on the level of cAMP when treated alone: compound alone, ANOVA followed by Dunnett's test, Figure 2
Text: It is well known that H3R is a GPCR coupled with Gαi. When the ligand (histamine) binds to H3R, the dissociated Gαi inhibits the activity of adenylate cyclase (AC) and down-regulates the level of intracellular cAMP. In this CREs driven luciferase assay, when cells were pre-treated by H3R antagonists, the downregulation of cAMP would be inhibited, and the level of intracellular cAMP would regain to the initial level.

MES [1] = conditions: cited from earlier work
MES-induced convulsions = MES-induced convulsions model; format: in vivo; conditions: mice; for protection against MES-induced convulsions (reduction or abolition of THLE): 10 mg/kg, i.p., 30 min before stimulation, vs saline group
Text: Protection for the mice was defined as the reduction or abolition of the tonic hind limb extension (THLE) in the MES model in mice.
Ear stimulation with alternating current (0.2 s, 60 Hz, 50 mA) was used to induce the seizures in mice. The reduction or abolition of the hind limb tonic extension (THLE) of mice was considered protective against the MES-induced seizures[29]^,[48]. […]

MES [2] = conditions: cited from earlier work; remark: listed apart in the source
PTZ = conditions: cited from earlier work

T1 sequence (Q9Y5N1 whole entry): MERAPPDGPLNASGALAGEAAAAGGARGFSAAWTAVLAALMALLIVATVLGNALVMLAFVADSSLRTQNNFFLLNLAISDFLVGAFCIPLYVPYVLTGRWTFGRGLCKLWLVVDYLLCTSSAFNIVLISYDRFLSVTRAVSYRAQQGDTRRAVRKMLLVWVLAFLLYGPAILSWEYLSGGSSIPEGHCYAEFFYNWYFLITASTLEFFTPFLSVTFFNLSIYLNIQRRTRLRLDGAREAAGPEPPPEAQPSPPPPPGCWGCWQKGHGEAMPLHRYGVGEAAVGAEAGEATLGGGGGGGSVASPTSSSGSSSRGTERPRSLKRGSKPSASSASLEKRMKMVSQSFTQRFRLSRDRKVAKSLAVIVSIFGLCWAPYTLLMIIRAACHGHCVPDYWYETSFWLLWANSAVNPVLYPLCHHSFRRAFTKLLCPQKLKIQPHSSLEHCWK

| SMILES | % Antagonism 100 nM (H3R) | % Antagonism 1 μM (H3R) | melting point | protection against MES-induced convulsions (reduction or abolition of THLE) (MES-induced convulsions) | further results |
| --- | --- | --- | --- | --- | --- |
| O=C(c1ccc(OCCCc2cnc[nH]2)cc1)C1CC1 [CPX, ciproxifan, reference compound] | 33.96 ± 8.59% | 63.05 ± 9.33% |  |  | effect on the level of cAMP when treated alone (intracellular cAMP): no significant effects |
| CCC(C)(C)c1ccc(OCCCN2CCCCC2)cc1 [DL-77] |  |  |  |  | MES (rats) (MES [1]; 5, 10, 15 mg/kg): protection |
| Cc1nncn1-c1ccc(OCCCN2CCCCC2)cc1.Cl [Compound 3k, 1-(3-(4–(3-methyl-4H-1,2,4-triazol-4-yl)phenoxy)propyl)piperidine hydrochloride] | 133.91 ± 8.91% | 183.54 ± 14.41% | 240 to 242 °C | did not achieve a significant difference from the control group | IC50 (H3R): 21 nM; effect on the level of cAMP when treated alone (intracellular cAMP): no significant effects |
| CCCCCCOc1ccc(-n2cnnc2)cc1 [III] |  |  |  |  | MES (mice) (MES [2]; 10 mg/kg i.p.): protection |
| CCN(CC)CCCOc1ccc(-n2cnnc2)cc1.Cl [Compound 3a, 3-(4-(4H-1,2,4-triazol-4-yl)phenoxy)-N,N-diethylpropan-1-amine hydrochloride] | 49.85 ± 9.73% | 223.76 ± 7.56% | 105 to 106 °C | moderate protection | IC50 (H3R): 2990 nM; effect on the level of cAMP when treated alone (intracellular cAMP): no significant effects |
| CCCN(CCC)CCCOc1ccc(-n2cnnc2)cc1.Cl [Compound 3b, 3-(4-(4H-1,2,4-triazol-4-yl)phenoxy)-N,N-dipropylpropan-1-amine hydrochloride] | 13.24 ± 4.83% | 15.02 ± 4.03% | 180 to 183 °C |  |  |
| NC(=NCc1ccc(Cl)cc1)SCCCc1cnc[nH]1 [Clobenpropit] |  |  |  |  | MES (mice) (MES [2]; 0.3, 1, 3 mg/kg i.p.): protection; PTZ (rats) (PTZ; 10 μg & 20 μg icv): protection |
| c1cc(-n2cnnc2)ccc1OCCCCCN1CCCCC1 [Compound 3q, 1-(5-(4-(4H-1,2,4-triazol-4-yl)phenoxy)pentyl)piperidine] | 1.88 ± 12.38% | 2.39 ± 13.85% |  |  |  |
| c1ccc(-c2ccc(-c3nncn3-c3ccc(OCCCN4CCCCC4)cc3)cc2)cc1 [Compound 3n, 1-(3-(4-(3-([1,1’-biphenyl]-4-yl)-4H-1,2,4-triazol-4-yl)phenoxy)propyl)piperidine] | 1.03 ± 7.79% | 3.36 ± 1.27% | 66 to 68 °C |  |  |
| O=C1NC(c2ccccc2)(c2ccccc2)C(=O)N1CCCN1CCCCC1 [H3R ligand I] |  |  |  |  | MES (rats) (MES [1]; 1 mg/kg i.p.): protection; PTZ (rats) (PTZ; 10 mg/kg i.p.): protection |
| c1cc(-n2cnnc2)ccc1OCCCCCN1CCCCC1 (as salt: HCl) [Compound 3q, 1-(5-(4-(4H-1,2,4-triazol-4-yl)phenoxy)pentyl)piperidine] |  |  | 70 to 74 °C |  |  |
| C=C[C@@]1(C)CC(=O)[C@]2(O)[C@@]3(C)[C@@H](O)CCC(C)(C)[C@@H]3[C@H](O)[C@H](OC(C)=O)[C@@]2(C)O1 [forskolin, reference compound] |  |  |  |  | rise of the cAMP level compared to the control group (intracellular cAMP; forskolin 2 µM): more than 200 times |
| C[C@@H](N)Cc1cnc[nH]1 [RAMH, R-(α)-methyl-histamine, reference compound] |  |  |  |  | effect on duration of THLE, administered alone (MES-induced convulsions; 10 mg/kg i.p. alone, p > 0.05 vs saline): did not affect the duration of THLE |
| NCCc1c[nH]cn1 [Histamine] |  |  |  |  | effect on the level of cAMP when treated alone (intracellular cAMP): no significant effects |
| Cl.c1cc(-n2cnnc2)ccc1OCCN1CCCCC1 [Compound 3o, 1-(2-(4–(4H-1,2,4-triazol-4-yl)phenoxy)ethyl)piperidine hydrochloride] | 45.04 ± 3.61% | 94.20 ± 2.60% | 85 to 87 °C | moderate protection | IC50 (H3R): 250 nM |

More lines, main results first:

| % Antagonism 100 nM (H3R) | % Antagonism 1 μM (H3R) | melting point | SMILES | protection against MES-induced convulsions (reduction or abolition of THLE) (MES-induced convulsions) | further results |
| --- | --- | --- | --- | --- | --- |
| −0.76 ± 4.87% | 20.24 ± 7.56% | 237 to 239 °C | Cl.c1cc(-n2cnnc2)ccc1OCCCN1CCOCC1 [Compound 3g, 4-(3-(4-(4H-1,2,4-triazol-4-yl)phenoxy)propyl)morpholine hydrochloride] | moderate protection |  |
| −4.2 ± 3.11% | 6.12 ± 2.05% | 196 to 198 °C | NC(=O)C1CCN(CCCOc2ccc(-n3cnnc3)cc2)CC1 [Compound 3j, 1-(3-(4-(4H-1,2,4-triazol-4-yl)phenoxy)propyl)piperidine-4-carboxamide] |  |  |
| 5.19 ± 2.06% | 16.45 ± 1.90% | 124 to 126 °C | c1ccc(C2CCN(CCCOc3ccc(-n4cnnc4)cc3)CC2)cc1 [Compound 3i, 1-(3-(4-(4H-1,2,4-triazol-4-yl)phenoxy)propyl)-4-phenylpiperidine] |  |  |
| 148.62 ± 4.43% | 169.04 ± 15.04% | 88 to 90 °C | c1ccc(-c2nncn2-c2ccc(OCCCN3CCCCC3)cc2)cc1 [Compound 3l, 1-(3-(4-(3-phenyl-4H-1,2,4-triazol-4-yl)phenoxy)propyl)piperidine] | moderate protection | IC50 (H3R): 7.81 nM; effect on the level of cAMP when treated alone (intracellular cAMP): no significant effects |
| 25.00 ± 3.95% | 90.52 ± 5.71% | 80 to 82 °C | Cl.c1cc(-n2cnnc2)ccc1OCCCCN1CCCCC1 [Compound 3p, 1-(4–(4-(4H-1,2,4-triazol-4-yl)phenoxy)butyl)piperidine hydrochloride] | did not achieve a significant difference from the control group | IC50 (H3R): 3440 nM |
| 9.86 ± 0.87% | 21.78 ± 3.04% | 220 to 223 °C | CN1CCN(CCCOc2ccc(-n3cnnc3)cc2)CC1.Cl [Compound 3e, 1-(3-(4-(4H-1,2,4-triazol-4-yl)phenoxy)propyl)-4-methylpiperazine hydrochloride] |  |  |
| 11.33 ± 5.86% | 79.4 ± 4.50% | 146 to 148 °C | Cl.Cl.c1cc(-n2cnnc2)ccc1OCCCN1CCNCC1 [Compound 3d, 1-(3-(4-(4H-1,2,4-triazol-4-yl)phenoxy)propyl)piperazine dihydrochloride] |  |  |
| 32.23 ± 5.69% | 143.98 ± 16.16% | 120 to 122 °C | Cl.c1cc(-n2cnnc2)ccc1OCCCN1CCCC1 [Compound 3c, 4-(4-(3-(pyrrolidin-1-yl)propoxy)phenyl)-4H-1,2,4-triazole hydrochloride] | did not achieve a significant difference from the control group | IC50 (H3R): 553 nM; effect on the level of cAMP when treated alone (intracellular cAMP): no significant effects |
| 9.96 ± 10.9% | 24.41 ± 6.30% | 172 to 174 °C | c1ccc(N2CCN(CCCOc3ccc(-n4cnnc4)cc3)CC2)cc1 [Compound 3f, 1-(3-(4-(4H-1,2,4-triazol-4-yl)phenoxy)propyl)-4-phenylpiperazine] |  |  |
| 10.56 ± 7.94% | 239.79 ± 3.17% | 249 to 252 °C | c1cc(-n2cnnc2)ccc1OCCCN1CCCCC1 [Compound 3h, 1–(3-(4-(4H-1,2,4-triazol-4-yl)phenoxy)propyl)piperidine] | moderate protection | IC50 (H3R): 127 nM; effect on the level of cAMP when treated alone (intracellular cAMP): no significant effects |
